Test results reported in US9957265B2, “N-(2-cyano heterocyclyl) pyrazolo pyridones as janus kinase inhibitors” (Merck Sharp & Dohme Corp., priority 2013, dated 2018).
Read-outs that look alike come from different tables or passages of the source.

What was measured:
[1] = target: JAK2 (Homo sapiens (Human), UniProt O60674); assay: Jak Biochemical HTRF Assay (JAK2)
[2] = target: JAK1 (Homo sapiens (Human), UniProt P23458); assay: Jak Biochemical HTRF Assay (JAK1); conditions: recombinant GST-tagged catalytic domain, [ATP] 31.8 μM, unit not given (compound concentrations tested given in nM)
JAK1, sequence (P23458 875-1153): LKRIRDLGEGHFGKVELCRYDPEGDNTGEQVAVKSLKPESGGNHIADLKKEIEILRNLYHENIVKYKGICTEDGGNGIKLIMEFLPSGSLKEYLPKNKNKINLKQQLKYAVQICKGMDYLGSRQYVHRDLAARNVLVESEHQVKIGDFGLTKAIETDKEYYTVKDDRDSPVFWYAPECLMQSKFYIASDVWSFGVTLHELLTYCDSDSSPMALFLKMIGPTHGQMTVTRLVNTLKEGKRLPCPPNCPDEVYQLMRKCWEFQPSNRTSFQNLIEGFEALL
Excerpt: Jak Biochemical HTRF Assay Protocol
Subsequent reagent additions employed an Agilent Bravo.

[3] = read-out: JAK2 IC50, recombinant GST-tagged catalytic domain, [ATP] 8.5 μM, unit not given (compound concentrations tested given in nM)
[4] = JAK2 IC50, recombinant GST-tagged catalytic domain, [ATP] 8.5 μM, unit not given (compound concentrations tested given in nM)

JAK2, sequence (O60674 849-1124): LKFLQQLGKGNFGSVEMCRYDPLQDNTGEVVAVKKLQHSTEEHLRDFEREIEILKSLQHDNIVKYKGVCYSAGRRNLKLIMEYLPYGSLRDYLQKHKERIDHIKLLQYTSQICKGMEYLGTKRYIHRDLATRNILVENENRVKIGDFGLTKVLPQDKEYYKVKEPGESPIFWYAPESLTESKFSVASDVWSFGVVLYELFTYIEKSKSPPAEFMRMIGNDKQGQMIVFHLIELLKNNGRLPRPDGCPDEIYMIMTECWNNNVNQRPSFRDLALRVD

Compound `C[C@H]1CN(S(=O)(=O)c2ccc(Nc3nn([C@H]4COCC[C@@H]4C#N)c4cc[nH]c(=O)c34)cc2)C[C@H](C)O1` (stereo in doubt) [Example 1-76, (3R,4S)-3-{3-[(4-{[(trans)-2,6-dimethylmorpholin-4-yl]sulfonyl}phenyl)amino]-4-oxo-4,5-dihydro-1H-pyrazolo[4,3-c]pyridin-1-yl}tetrahydro-2H-pyran-4-carbonitrile] has an IC50 [1, 3] of 0.82 nM and an IC50 [2] of 0.24 nM.
In the case of `CC(C)(C)CNC(c1ccc(Nc2nn([C@H]3COCC[C@@H]3C#N)c3cc[nH]c(=O)c23)cc1)C(F)(F)F` (single isomer, unassigned) [Example 1-82, (3R,4S)-3-{3-[(4-{[1S or 1R)-1-[(2,2-dimethylpropyl)amino]-2,2,2-trifluoroethyl}phenyl)amino]-4-oxo-4,5-dihydro-1H-pyrazolo[4,3-c]pyridin-1-yl} tetrahydro-2H-pyran-4-carbonitrile], the IC50 [1, 4] is reported as 2.56 nM and the IC50 [2] is reported as 0.87 nM.
In the case of `CC(C)(C)S(=O)(=O)c1ccc(Nc2nn([C@@H]3COCCC[C@H]3C#N)c3cc[nH]c(=O)c23)cc1` (single isomer, unassigned) [Example 1-23, (3S,4R or 3R,4S)-3-(3-{[4-(tert-butylsulfonyl)phenyl]amino}-4-oxo-4,5-dihydro-1H-pyrazolo[4,3-c]pyridin-1-yl)oxepane-4-carbonitrile], the IC50 [1, 4] is reported as 0.69 nM and the IC50 [2] is reported as 0.25 nM.
Work on `CCC(C)(C)S(=O)(=O)c1ccc(Nc2nn([C@H]3COCC[C@@H]3C#N)c3cc[nH]c(=O)c23)cc1` [Example 1-65, (3R,4S)-3-[3-({4-[(1,1-dimethylpropyl)sulfonyl]phenyl}amino)-4-oxo-4,5-dihydro-1H-pyrazolo[4,3-c]pyridin-1-yl]tetrahydro-2H-pyran-4-carbonitrile] yielded an IC50 [1, 3] of 0.26 nM and an IC50 [2] of 0.09 nM.
With `CC(C)(C)CNC(c1ccc(Nc2nn([C@H]3COCC[C@@H]3C#N)c3cc[nH]c(=O)c23)cc1)C(F)(F)F` (single isomer, unassigned) [Example 1-83, (3R,4S)-3-{3-[(4-{(1R or 1S)-1-[(2,2-dimethylpropyl)amino]-2,2,2-trifluoroethyl}phenyl)amino]-4-oxo-4,5-dihydro-1H-pyrazolo[4,3-c]pyridin-1-yl} tetrahydro-2H-pyran-4-carbonitrile] the IC50 [1, 4] was 1.06 nM and the IC50 [2] was 0.5 nM.
`N#C[C@H]1CCOC[C@@H]1n1nc(Nc2ccc(C(N3CCNCC3)C(F)(F)F)cc2)c2c(=O)[nH]ccc21` (single isomer, unassigned) [Example 1-39, (3R,4S)-3-[4-oxo-3-({4-[(1S or 1R)-2,2,2-trifluoro-1-piperazin-1-ylethyl]phenyl}amino)-4,5-dihydro-1H-pyrazolo[4,5-c]pyridin-1-yl]tetrahydro-2H-pyran-4-carbonitrile] gave an IC50 [1, 4] of 0.17 nM and an IC50 [2] of 0.13 nM.
Compound `N#Cc1ccc(Nc2nn([C@H]3COCC[C@@H]3C#N)c3cc[nH]c(=O)c23)cc1` [Example 1-31, (3R,4S)-3-{3-[(4-cyanophenyl)amino]-4-oxo-4,5-dihydro-1H-pyrazolo[4,3-c]pyridin-1-yl}tetrahydro-2H-pyran-4-carbonitrile] has an IC50 [1, 3] of 0.96 nM and an IC50 [2] of 0.12 nM.
Compound `CC(C)(C)N1Cc2cc(Nc3nn([C@H]4COCC[C@@H]4C#N)c4cc[nH]c(=O)c34)ccc2S1(=O)=O` [Example 1-5, (3R,4S)-3-(3-((2-(tert-butyl)-1,1-dioxido-2,3-dihydrobenzo[d]isothiazol-5-yl)amino)-4-oxo-4,5-dihydro-1H-pyrazolo[4,3-c]pyridin-1-yl)tetrahydro-2H-pyran-4-carbonitrile] has an IC50 [1, 3] of 0.15 nM and an IC50 [2] of 0.05 nM.
For `CC(C)(C)S(=O)(=O)c1ccc(Nc2nn([C@@H]3COCCC[C@@H]3C#N)c3cc[nH]c(=O)c23)cc1` (single isomer, unassigned) [Example 1-25, (3S,4S or 3R,4R)-3-(3-{[4-(tert-butylsulfonyl)phenyl]amino}-4-oxo-4,5-dihydro-1H-pyrazolo[4,3-c]pyridin-1-yl)oxepane-4-carbonitrile], the IC50 [1, 4] was 3.43 nM and the IC50 [2] was 2.27 nM.
In the case of `CC(C)CNC(c1ccc(Nc2nn([C@H]3COCC[C@@H]3C#N)c3cc[nH]c(=O)c23)cc1)C(F)(F)F` (single isomer, unassigned) [Example 1-91, (3R,4S)-3-{4-oxo-3-[(4-{(1R or 1S)-2,2,2-trifluoro-1-[(2-methylpropyl)amino]ethyl}phenyl)amino]-4,5-dihydro-1H-pyrazolo[4,3-c]pyridin-1-yl}tetrahydro-2H-pyran-4-carbonitrile], the IC50 [1, 4] is reported as 0.21 nM and the IC50 [2] is reported as 0.17 nM.
`N#C[C@H]1CCOCC1n1nc(Nc2ccc(C(O)(c3ccccn3)C(F)(F)F)cc2)c2c(=O)[nH]ccc21` (single isomer, unassigned) [Example 1-96, (3R,4S)-3-(4-oxo-3-((4-((S or R)-2,2,2-trifluoro-1-hydroxy-1-(pyridin-2-yl)ethyl)phenyl)amino)-4,5-dihydro-1H-pyrazolo[4,3-c]pyridin-1-yl)tetrahydro-2H-pyran-4-carbonitrile] was tested, and the IC50 [1, 4] was 0.15 nM and the IC50 [2] was 0.07 nM.
In the case of `CC(C)NC(c1ccc(Nc2nn([C@H]3COCC[C@@H]3C#N)c3cc[nH]c(=O)c23)cc1)C(F)(F)F` (single isomer, unassigned) [Example 1-53, (3R,4S)-3-{4-oxo-3-[(4-{[1S or 1R)-2,2,2-trifluoro-[(1-methylethyl)amino]ethyl}phenyl)amino]-4,5-dihydro-1H-pyrazolo[4,3-c]pyridin-1-yl}tetrahydro-2H-pyran-4-carbonitrile], the IC50 [1, 4] is reported as 0.09 nM and the IC50 [2] is reported as 0.08 nM.
In the case of `Cc1cc(Nc2nn([C@H]3COCC[C@@H]3C#N)c3cc[nH]c(=O)c23)ccc1C(=O)N1CCC(F)(F)CC1` [Example 1-35, (3R,4S)-3-(3-((4-(4,4-difluoropiperidine-1-carbonyl)-3-methylphenyl)amino)-4-oxo-4,5-dihydro-1H-pyrazolo[4,3-c]pyridin-1-yl)tetrahydro-2H-pyran-4-carbonitrile], the IC50 [1, 3] is reported as 0.16 nM and the IC50 [2] is reported as 0.12 nM.
With `CC(c1ccc(Nc2nn([C@H]3COCC[C@@H]3C#N)c3cc[nH]c(=O)c23)cc1)n1nccn1` (single isomer, unassigned) [Example 1-44, (3R,4S)-3-[4-oxo-3-({4-[(1S or 1R)-1-(2H-1,2,3-triazol-2-yl)ethyl]phenyl}amino)-4,5-dihydro-1H-pyrazolo[4,3-c]pyridin-1-yl]tetrahydro-2H-pyran-4-carbonitrile] the IC50 [1, 4] was 0.18 nM and the IC50 [2] was 0.12 nM.
Compound `CCNC(c1ccc(Nc2nn([C@H]3COCC[C@@H]3C#N)c3cc[nH]c(=O)c23)cc1)C(F)(F)F` (single isomer, unassigned) [Example 1-55, (3R,4S)-3-[3-({4-[(1S or 1R)-1-(ethylamino)-2,2,2-trifluoroethyl]phenyl}amino)-4-oxo-4,5-dihydro-1H-pyrazolo[4,3-c]pyridin-1-yl] tetrahydro-2H-pyran-4-carbonitrile] has an IC50 [1, 4] of 0.12 nM and an IC50 [2] of 0.08 nM.
Compound `N#C[C@H]1CCOC[C@@H]1n1nc(Nc2ccc(C(N3CCCC3)C(F)(F)F)cc2)c2c(=O)[nH]ccc21` (single isomer, unassigned) [Example 1-43, (3R,4S)-3-[4-oxo-3-({4-[(1S or 1R)-2,2,2-trifluoro-1-pyrrolidin-1-ylethyl]phenyl}amino)-4,5-dihydro-1H-pyrazolo[4,3-c]pyridin-1-yl]tetrahydro-2H-pyran-4-carbonitrile] has an IC50 [1, 4] of 0.08 nM and an IC50 [2] of 0.04 nM.
`N#C[C@H]1CCOC[C@@H]1n1nc(Nc2ccc(C(NC3CC3)C(F)(F)F)cc2)c2c(=O)[nH]ccc21` (single isomer, unassigned) [Example 1-80, (3R,4S)-3-[3-({4-[(1S or 1R)-1-(cyclopropylamino)-2,2,2-trifluoroethyl]phenyl}amino)-4-oxo-4,5-dihydro-1H-pyrazolo[4,3-c]pyridin-1-yl]tetrahydro-2H-pyran-4-carbonitrile] was tested, and the IC50 [1, 4] was 0.15 nM and the IC50 [2] was 0.07 nM.
In the case of `N#C[C@H]1CCOCC1n1nc(Nc2ccc(C(O)(c3ccccn3)C(F)(F)F)cc2)c2c(=O)[nH]ccc21` (single isomer, unassigned) [Example 1-97, (3R,4S)-3-(4-oxo-3-((4-((S or R)-2,2,2-trifluoro-1-hydroxy-1-(pyridin-2-yl)ethyl)phenyl)amino)-4,5-dihydro-1H-pyrazolo[4,3-c]pyridin-1-yl)tetrahydro-2H-pyran-4-carbonitrile], the IC50 [1, 4] is reported as 0.18 nM and the IC50 [2] is reported as 0.14 nM.
Work on `CS(=O)(=O)c1ccc(Nc2nn([C@@H]3COCC[C@H]3C#N)c3cc[nH]c(=O)c23)cc1` [Example 1-1, (3S,4R)-3-(3-((4-(methylsulfonyl)phenyl)amino)-4-oxo-4,5-dihydro-1H-pyrazolo[4,3-c]pyridin-1-yl)tetrahydro-2H-pyran-4-carbonitrile] yielded an IC50 [1, 3] of 11.5 nM and an IC50 [2] of 7.06 nM.
`N#C[C@H]1CCOC[C@@H]1n1nc(Nc2ccc(S(=O)(=O)N3CCC3)cc2)c2c(=O)[nH]ccc21` [Example 1-69, (3R,4S)-3-(3-{[4-(azetidin-1-ylsulfonyl)phenyl]amino}-4-oxo-4,5-dihydro-1H-pyrazolo[4,3-c]pyridin-1-yl)tetrahydro-2H-pyran-4-carbonitrile] was tested, and the IC50 [1, 3] was 0.3 nM and the IC50 [2] was 0.08 nM.
Work on `C[C@@H]1CN(S(=O)(=O)c2ccc(Nc3nn([C@H]4COCC[C@@H]4C#N)c4cc[nH]c(=O)c34)cc2)C[C@H](C)O1` [Example 1-73, (3R,4S)-3-{3-[(4-{[(cis)-2,6-dimethylmorpholin-4-yl]sulfonyl}phenyl)amino]-4-oxo-4,5-dihydro-1H-pyrazolo[4,3-c]pyridin-1-yl}tetrahydro-2H-pyran-4-carbonitrile] yielded an IC50 [1, 3] of 0.7 nM and an IC50 [2] of 0.35 nM.
`COC(=N)c1cc(Nc2nn([C@H]3COCC[C@@H]3C#N)c3cc[nH]c(=O)c23)ccc1O` [Example 1-16, methyl 5-({1-[(3R,4S)-4-cyanotetrahydro-2H-pyran-3-yl]-4-oxo-4,5-dihydro-1H-pyrazolo[4,3-c]pyridin-3-yl}amino)-2-hydroxybenzenecarboximidoate] showed an IC50 [1, 3] of 5.04 nM and an IC50 [2] of 0.36 nM.
